Measurements published in patent US20160346320A1, “SUBSTANCE FOR INHIBITING TISSUE CALCIFICATION, TISSUE FIBROSATION AND AGE-RELATED DISEASES” (Fresenius Kabi Deutschland GmbH, priority 2013, published 2016).
Entries after “also recorded” stand apart in the source; their conditions may differ.

Experiments:
[1] = tested on: alkaline phosphatase (ALP) mRNA; format: cell-based, human
[2] = growth and body weight of klotho mice; format: in vivo; settings: for body weight / growth deficit: NH4Cl 0.28 M or acetazolamide 800 mg/l in drinking water
[3] = blood chemistry: plasma concentrations in klotho mice; format: in vivo; settings: NH4Cl 0.28 M or acetazolamide 800 mg/l in drinking water
Runx2 mRNA = format: cell-based, human
SOX9 = SOX9 expression in HAoSMCs, quantitative RT-PCR; format: cell-based, human; settings: NH4Cl 500 μM
Procedure: (§1) The following experimental studies were executed: Primary human aortic smooth muscle cells (HAoSMCs, Invitrogen) were cultivated in Waymouth's MB 752/1 medium and Ham's F12 nutrient mixture (1:1, Gibco, Life Technologies) with the addition of 10% FBS (Gibco, Life Technologies). In all experiments, confluent HAoSMCs, passages 4 to 11, were used. The cells were treated for 24 hours with 2 mM β-glycerophosphate (Sigma-Aldrich) with or without simultaneous addition of 0.5 mM ammonium salts or 100 μM chloroquine diphosphate (Sigma-Aldrich). Quantitative RT-PCR (real time polymerase chain reaction) were carried out, as described previously (Voelkl, J., Alesutan, I., Leibrock, C. B., Quintanilla-Martinez, L., Kuhn, V., Feger, M., Mia, S., Ahmed, M. S., Rosenblatt, K. P., Kuro, O., Lang, F.: Spironolactone ameliorates PIT1-dependent vascular osteoinduction in klotho-hypomorphic mice. J. Clin Invest 2013; February 1; 123(2):812-22). For this, HAoSMCs were washed and total RNA were isolated using Trifast reagent (Peqlab) according to the directions from the manufacture. […] The total RNA were likewise isolated with Trifast reagent (Peqlab) in accordance with the directions from the manufacture. In each case, 2 μg RNA of the human as well as the murine samples were used for the reverse transcription of the RNA with oligo(dT)12-18 primers (Invitrogen) and SuperScripIII Reverse Transcriptase (Invitrogen). Quantitative real-time PCR were carried out with an iCycler iQ™ Real-Time PCR Detection System (Bio-Rad Laboratories) and iQ™ Sybr Green Supermix (Bio-Rad Laboratories) according to the manufacturer's instructions. The following primers were used (5′ orientation): […]
(§2) The specificity of the PCR products was checked by means of melting curve analysis and agarose gel electrophoresis. All PCRs were each carried out twice, and the multiple mRNA quantities were calculated by means of the […] methods with GAPDH as the internal reference.

NFAT5 [4] = assay: NFAT5 expression in HAoSMCs, quantitative RT-PCR; format: cell-based, human; settings: NH4Cl 500 μM
Procedure: as §1, §2

TGFβ1 mRNA = format: cell-based, human
NFAT5 [5] = assay: NFAT5 expression in aortas of klotho mice; format: in vivo; settings: NH4Cl 0.28 M in drinking water
[6] = HAoSMCs transfected with NFAT5, 2 mM β-glycerophosphate
[7] = HAoSMCs transfected with empty vectors, 2 mM β-glycerophosphate
[8] = HAoSMCs, 2 mM β-glycerophosphate

| Compound | ALP mRNA expression increase [1] | body weight [2] | growth deficit [2] | Runx2 mRNA expression increase (Runx2 mRNA) | TGFβ1 mRNA expression increase (TGFβ1 mRNA) | further results |
| --- | --- | --- | --- | --- | --- | --- |
| CCN(CC)CCCC(C)Nc1ccnc2cc(Cl)ccc12 (racemic) [chloroquine, (RS)—N′-(7-chloroquinoline-4-yl)-N,N-diethyl-pentane-1,4-diamine] | reduce the expression; also recorded: suppression of the ALP mRNA expression increase | – | – | – | – | – |
| CC(=O)Nc1nnc(S(N)(=O)=O)s1 [acetazolamide] | – | could be increased | could not be fully compensated | – | – | concentration of matrix gla protein (MGP) in plasma [3]: fully normalize |
| Cl.N [ammonium chloride, Ammonium chloride] | reduce the expression; also recorded: suppression of the expression increase | nearly entirely neutralize the weight deficiency | nearly entirely neutralized | inhibit the expression; also recorded: suppressed | inhibit the formation of TGFβ1; also recorded: prevented | growth ([2]; wild mice (klotho^+/+), NH4Cl 0.28 M in drinking water): no growth stimulation; expression of SOX9 (SOX9; [6]): prevents the effect of NH4Cl; also recorded: remained high; expression of SOX9 (SOX9; [7]): sink back to a normal level; transcription level of SOX9 (SOX9; [8]): reduced the expression; expression of NFAT5 (NFAT5 [4]; [6]): remained high; expression of NFAT5 (NFAT5 [4]; [7]): sink back to a normal level; transcription level of NFAT5 (NFAT5 [4]; [8]): reduced the expression; also recorded: reverse the increase; expression of NFAT5 in aortas (NFAT5 [5]): normalization of the transcription level |
| CC(O)C(=O)O.N (stereo not shown) [ammonium lactate, Ammonium lactate] | – | – | – | – | inhibit the formation of TGFβ1; also recorded: lessened | – |
| N.N.O=S(=O)(O)O [ammonium sulfate, Ammonium sulfate] | reduce the expression; also recorded: suppression of the expression increase | – | – | inhibit the expression; also recorded: suppressed | inhibit the formation of TGFβ1; also recorded: lessened | – |
| Ammonium citrate | – | – | – | – | inhibit the formation of TGFβ1; also recorded: lessened | – |
